{"source": "patent US12178786B2", "about": "“Combination of cellular immunotherapy” (CRAGE medical Co., Limited, priority 2018, dated 2024)", "key": {"IL2": {"test_system": "IL2", "test": "Effect of sorafenib on cytokine secretion of CAR T cells (Cytometric Bead Array)", "format": "cell-based, human", "details": "general statement of the applicant's finding", "procedure": "As for the specific steps, referring to the steps in the manual of The Cytometric Bead Array System (BD, USA), which are briefly described as follows:\nb) The microspheres (cytometric bead array system, BD, USA) capturing the human cytokine IL2, IFN-γ, and TNF-α are taken to mix in a suspension.\nc) The mixture of the microspheres for capturing and detection antibody are added into the standard or supernatant sample, incubating at room temperature in the dark; after the incubation is completed, it is washed with washing buffer, then centrifuging, and discarding the supernatant.\nThe secretion levels of IL-2, IFN-γ and TNF-α are detected by flow cytometry, and the results are shown in FIGS. 8A, 8B, and 8C, wherein ns means p>0.05; *p<0.05; **p<0.01; ***p<0.001, one-way ANOVA."}, "[1]": {"details": "compound II administrated alone in the clinical trial; cited from earlier work"}}}
{"compound": "CNC(=O)c1cc(Oc2ccc(NC(=O)Nc3ccc(Cl)c(C(F)(F)F)c3)cc2)ccn1", "note": "[sorafenib]", "values": [{"measurement": "secretion of the cytokine IL2 by CAR T cells", "setting": "IL2", "result": "promote CAR T cells to secrete the cytokine IL2"}, {"measurement": "approximate concentration in the patient's body", "setting": "[1]", "result": "~6.5", "unit": "µM"}]}
